Data from patent US20020086278A1, “CHROMOGENIC MEDIA CONTAINING BLOOD OR HEMIN” (priority 1999, published 2002).
Counter-ions that a name gives are not always drawn. Like-named read-outs stand apart in the source and are kept apart here.

Key:
S. epidermidis 12228 [1] = experiment: Example 1: growth and colony color on plates surface-spread with chromogen; type: cell-based; settings: for Color: S. epi 12228
[2] = system: Staphylococcus aureus 25923; experiment: as above; type: cell-based; settings: S. aureus 25923
Group B Strep. 12386 = experiment: as above; type: cell-based; settings: for Color / Growth: Group B Strep 12386; for Substrates Producing Color / Substrates Producing Growth Inhibition: Summary of Table I, Group B Strep. 12386
[3] = system: Haemophilus influenzae 35540; experiment: as above; type: cell-based; settings: for Color: Substrate on Choclate II Agar, H. influ. 35540
N. gonorrhoeae 35201 = experiment: as above; type: cell-based; settings: for Growth: Substrate on Choclate II Agar, N. gono. 35201
[4] = system: Haemophilus influenzae 10211; experiment: as above; type: cell-based; settings: Substrate on Choclate II Agar, H. influ. 10211
N. sicca 29193 [5] = experiment: as above; type: cell-based
[6] = system: Neisseria meningitidis 13090; experiment: as above; type: cell-based
S. aureus 25923 = experiment: Example 2: effect of incubation conditions on colony color formation; type: cell-based, Staphylococcus aureus
S. epidermidis 12228 [7] = experiment: as above; type: cell-based, Staphylococcus epidermidis
H. influenzae 10211 = experiment: as above; type: cell-based
H. influenzae 35540 = experiment: as above; type: cell-based
N. meningitidis 13090 = type: cell-based; settings: Chocolate II Agar, 0.004 g/plate; 24 h, CO2
N. sicca 29193 [8] = experiment: Example 2: effect of incubation conditions on colony color formation; type: cell-based
[9] = system: Aeromonas hydrophilia (aehy); experiment: Example 3: colony color on chromogenic TSA II with 5% sheep blood (chromogen in medium); type: cell-based; settings: for Colony Color: CO2; for Colony Color (Summary): chromogenic TSA II with 5% Sheep Blood, 0.1 g/l, 3 strains tested
[10] = system: Entercoccus faecalis (enfa); experiment: as above; type: cell-based; settings: for Colony Color (Summary): chromogenic TSA II with 5% Sheep Blood, 0.1 g/l, 6 strains tested
S. milleri (stmi) = experiment: as above; type: cell-based; settings: for Growth vs. control / Colony Color (Summary): chromogenic TSA II with 5% Sheep Blood, 0.1 g/l; for Colony Color: stmi 6249, 21 h; for Colony Color (Summary): 2 strains tested; for Colony Color on Various Chromogenic TSA II with 5% Sheep Blood: stmi 6242, 18 h
[11] = Solubility of chromogen in DMSO; type: physicochemical; settings: 0.08g in 1.0 ml DMSO
Experimental: In this series of experiments, 0.08g of each chromogen indicated below was added to 1.0 ml DMSO and thoroughly mixed.

[12] = system: bacterial test strains of Example 1; experiment: Example 1: inhibitory effect over all test strains; type: cell-based; settings: Example 1, all test strains
C. perfringens 13124 = type: cell-based, Clostridium perfringens; settings: TSA II 5% Sheep Blood, 0.004 g/plate; 5 d, ANA
S. mitis 6249 = experiment: Example 2: effect of incubation conditions on colony color formation; type: cell-based, Streptococcus mitis; settings: TSA II 5% Sheep Blood, 0.004 g/plate; 24 h, CO2
S. pneumoniae 6303 = experiment: as above; type: cell-based, Streptococcus pneumoniae; settings: TSA II 5% Sheep Blood, 0.004 g/plate; 24 h, CO2
[13] = system: Group D Strep / Enterococcus; experiment: Example 3: colony color on chromogenic TSA II with 5% sheep blood (chromogen in medium); settings: 7 of 7 strains
55 strains = experiment: Example 3: color, hemolytic activity and growth over all 55 strains; type: cell-based; settings: Gram-positives
Text: Steers, E. et al., Antibiot.

[14] = Substrate on Choclate II Agar, N. mening. 13090

Compound: O=P(O)(O)Oc1c[nH]c2cc(Cl)c(Br)cc12 [Mag-Phos, 5-Br-6-Cl-3-indolyl-phosphate, p-touidine salt]
- Color (S. epidermidis 12228 [1]; Choc II): purple
- Substrates Producing Color (S. epidermidis 12228 [1]; Summary of Table I, S. epidermidis 12228): Mag-phos
- Color (S. epidermidis 12228 [1]; TSA II 5SB): purple
- Color (S. epidermidis 12228 [1]; TSA Plain): purple
- Color ([2]; Choc II): purple
- Substrates Producing Color ([2]; Summary of Table I): Mag-phos
- Color ([2]; TSA II 5SB): purple
- Color ([2]; TSA Plain): purple
- Color (Group B Strep. 12386; Choc II): purple
- Substrates Producing Color (Group B Strep. 12386): Mag-phos
- Substrates Producing Growth Inhibition (Group B Strep. 12386): Slight inhib. w/ X-
- Color (Group B Strep. 12386; TSA II 5SB): purple (a)
- Growth (Group B Strep. 12386; TSA II 5SB): <
- Color (Group B Strep. 12386; TSA Plain): purple
- Growth (Group B Strep. 12386; TSA Plain): <
- Color [3]: purple
- Color ([3]; listed as Mag-phos): dark purple
- Substrates Producing Color ([3]; Summary of Table I, H. influenzae 35540, 10211): Mag-phos
- Substrates Producing Growth Inhibition (N. gonorrhoeae 35201; Summary of Table I, N. gonorrhoeae 35201): Mag-phos
- Color [4]: purple
- Color ([4]; listed as Mag-phos): dark purple
- Color (N. sicca 29193 [5]; Substrate on Choclate II Agar, N. sicca. 29193): purple
- Substrates Producing Color (N. sicca 29193 [5]; Summary of Table I, N. sicca 29193): Mag-phos
- Growth [6]: = NC
- Color [6, 14]: colorless
- Colony Color (S. aureus 25923): purple (m)
- Colony Color (S. epidermidis 12228 [7]): purple (m)
- Colony Color (H. influenzae 10211): purple (m)
- Colony Color (H. influenzae 35540): purple (m)
- Colony Color (N. meningitidis 13090): NC (col
- Colony Color (N. sicca 29193 [8]): purple (m)
- Colony Color ([9]; aehy 7965, 21 h): gp
- Colony Color ([9]; aehy 7966, 21 h): gp
- Colony Color (Summary) [9]: +
- Colony Color (Summary) [10]: +
- Colony Color ([10]; enfa 597, CO2, 21 h): lp
- Colony Color ([10]; enfa 597, air, 21 h): lp
- Colony Color ([10]; enfa 10741, CO2, 21 h): lp
- Colony Color ([10]; enfa 12953, CO2, 21 h): lp
- Colony Color ([10]; enfa 14506, CO2, 21 h): lp
- Colony Color ([10]; enfa 29212, CO2, 21 h): lp
- Growth vs. control (S. milleri (stmi)): no growth
- Colony Color (S. milleri (stmi); air): 0
- Solubility / appearance of solution in DMSO [11]: clear and light orange in color
- Inhibitory effect [12]: most inhibitory effect

Compound: CC(=O)N[C@H]1[C@H](Oc2c[nH]c3ccc(Br)c(Cl)c23)O[C@H](CO)[C@H](O)[C@@H]1O [X-Acglmn, 5-Br-4-Cl-3-indolyl-N-Acetyl-β-D-galactosaminide]
- Growth [6, 14]: <
- Substrates Producing Growth Inhibition ([6]; Summary of Table I, N. meningitidis 13090): Slight inhib w/ X-
- Colony Color (C. perfringens 13124): blue (l)
- Colony Color (S. mitis 6249): blue (vl)
- Colony Color (S. pneumoniae 6303): blue (l)
- Colony Color ([9]; aehy 7965, 18 h): db
- Colony Color ([9]; aehy 7965, 21 h): gb
- Colony Color ([9]; aehy 7966, 18 h): db
- Colony Color ([9]; aehy 7966, 21 h): gb
- Colony Color ([9]; aehy 49847, 18 h): db
- Colony Color ([9]; aehy 49847, 21 h): gb
- Colony Color (Summary) [9]: +
- Colony Color (Summary) [10]: +
- Colony Color ([10]; enfa 597, CO2, 18 h): db
- Colony Color ([10]; enfa 597, CO2, 21 h): db
- Colony Color ([10]; enfa 10741, CO2, 18 h): db
- Colony Color ([10]; enfa 10741, CO2, 21 h): db
- Colony Color ([10]; enfa 12953, CO2, 18 h): db
- Colony Color ([10]; enfa 12953, CO2, 21 h): db
- Colony Color ([10]; enfa 14506, CO2, 18 h): db
- Colony Color ([10]; enfa 14506, CO2, 21 h): db
- Colony Color ([10]; enfa 29212, CO2, 18 h): db
- Colony Color ([10]; enfa 29212, CO2, 21 h): db
- Colony Color ([10]; enfa 29212, CO2, 24 h): db
- Colony Color ([10]; enfa 29212, air, 24 h): db
- Growth vs. control (S. milleri (stmi)): <grth
- Colony Color (Summary) (S. milleri (stmi)): 0
- Colony Color on Various Chromogenic TSA II with 5% Sheep Blood (S. milleri (stmi); CO2): 0
- Colony Color (S. milleri (stmi); air): 0
- Colony Color [13]: dark blue

Compound: OC[C@H]1O[C@@H](Oc2c[nH]c3ccc(Br)c(Cl)c23)[C@H](O)[C@@H](O)[C@H]1O [X-Gal, 5-Br-4-Cl-3-indolyl-β-D-galactopyranoside]
- Substrates Producing Growth Inhibition (Group B Strep. 12386): Slight inhib. w/ X-
- Growth (Group B Strep. 12386; TSA II 5SB): <
- Growth (Group B Strep. 12386; TSA Plain): <
- Growth (N. gonorrhoeae 35201): <
- Colony Color (C. perfringens 13124): blue (m)
- Colony Color (S. pneumoniae 6303): blue (l)
- Colony Color ([9]; aehy 7965, 21 h): gb
- Colony Color ([9]; aehy 7966, 21 h): gb
- Colony Color ([9]; aehy 49847, 21 h): gb
- Colony Color (Summary) [9]: 0
- Colony Color ([10]; enfa 597, CO2, 21 h): 0
- Colony Color ([10]; enfa 597, air, 21 h): 0
- Colony Color ([10]; enfa 10741, CO2, 21 h): gb
- Colony Color ([10]; enfa 10741, air, 21 h): lgb
- Colony Color ([10]; enfa 12953, CO2, 21 h): 0
- Colony Color ([10]; enfa 12953, air, 21 h): 0
- Colony Color ([10]; enfa 14506, CO2, 21 h): lgb
- Colony Color ([10]; enfa 14506, air, 21 h): 0
- Colony Color ([10]; enfa 29212, CO2, 21 h): gb
- Colony Color ([10]; enfa 29212, CO2, 24 h): vlgb
- Colony Color ([10]; enfa 29212, air, 21 h): gb
- Colony Color ([10]; enfa 29212, air, 24 h): vlgb
- Colony Color (Summary) (S. milleri (stmi)): 0
- Colony Color (S. milleri (stmi); CO2): 0
- Colony Color (S. milleri (stmi); air): 0
- Usefulness for Gram-positives (55 strains): not particularly useful

Compound: OC[C@H]1O[C@@H](Oc2c[nH]c3ccc(Br)c(Cl)c23)[C@H](O)[C@@H](O)[C@@H]1O [X-Glucoside, 5-Br-4-Cl-3-indolyl-β-D-glucopyranoside]
- Color (Group B Strep. 12386; Choc II): blue
- Substrates Producing Color (Group B Strep. 12386): X-Glucoside, X-
- Color (Group B Strep. 12386; TSA II 5SB): blue
- Color (Group B Strep. 12386; TSA Plain): blue
- Growth (N. gonorrhoeae 35201): <
- Colony Color ([9]; aehy 7965, 18 h): 0
- Colony Color ([9]; aehy 7965, 21 h): 0
- Colony Color ([9]; aehy 7966, 18 h): 0
- Colony Color ([9]; aehy 49847, 18 h): gb
- Colony Color ([9]; aehy 49847, 21 h): gb
- Colony Color (Summary) [10]: +
- Colony Color ([10]; enfa 597, CO2, 18 h): db
- Colony Color ([10]; enfa 10741, CO2, 18 h): db
- Colony Color ([10]; enfa 10741, CO2, 21 h): db
- Colony Color ([10]; enfa 12953, CO2, 18 h): db
- Colony Color ([10]; enfa 12953, CO2, 21 h): db
- Colony Color ([10]; enfa 14506, CO2, 18 h): db
- Colony Color ([10]; enfa 14506, CO2, 21 h): db
- Colony Color ([10]; enfa 29212, CO2, 18 h): db
- Colony Color ([10]; enfa 29212, CO2, 21 h): db
- Colony Color (Summary) (S. milleri (stmi)): 0
- Colony Color on Various Chromogenic TSA II with 5% Sheep Blood (S. milleri (stmi); CO2): 0
- Colony Color (S. milleri (stmi); CO2): 0
- Colony Color (S. milleri (stmi); air): 0
- Colony Color [13]: blue
